From patent US8575368B2, “Proanthocyanidin of cashew apple, composition containing proanthocyanidin, and application thereof” (Nichirei Biosciences, Inc., priority 2008, dated 2013)
Where a name gives a salt, the structure may show the parent alone. Read-outs that look alike come from different tables or passages of the source.

Key:
[1] = target: lipase from Pseudomonas sp. (type XIII); assay: Bacterial lipase inhibitory activity test (4-methylumbelliferyl oleate fluorescence); assay type: biochemical; settings: 0.1 μg/ml lipase solution
Excerpt: In order to extensively evaluate lipase inhibitory activities of the product of the present invention and of a plurality of known components, lipase derived from commercially available bacteria of Pseudomonas (Pseudomonas sp.) was used. Pseudomonas is a […] of gram-negative aerobic bacteria. A representative example of well-known bacteria is P. aeruginosa. In the experiment, lipase from Pseudomonas sp. (type XIII, ≧15 units/solid, L9518, Sigma-Aldrich Japan) was used. This lipase is a very potent enzyme. From the preliminary inquiry to the inhibitory activity test, 0.1 μg/ml of a lipase solution was used. In the experiment, fractions obtained in Examples 2 and 3 containing proanthocyanidin polymers derived from cashew apple of the present invention were subjected to the assay. The following reagent was used as a control sample to assay lipase inhibitory activity.
Assay was carried out in accordance with Non-Patent Document 2 (J. Agric. Food Chem., 2007, 55, 4604-4609). A specimen diluent and a blank solution (a specimen diluent) were added to a 96-well fluorescence plate and then at 25 μl/well. A lipase solution prepared with the use of PBS(−) (lipase from Pseudomonas sp. Type XIII, SIGMA) was added to the test of the present invention at 25 μl/well and PBS(−) was added to the blind test group at 25 μl/well. A 0.1 mM fluorescent substrate solution (4-methylumbelliferyl oleate, Fluka) prepared with the use of PBS(−) was added thereto at 50 μl/well, and the reaction was then allowed to proceed for 20 minutes. A 0.1 M sodium citrate solution (pH 4.2) was added as a reaction terminator at 100 μl/well, and fluorescence intensity was assayed using a fluorescence plate reader (Ex 365 nm, Em 450 nm). Lipase inhibitory activity was determined by the following formula. 3,4-Dihydroxycinnamic acid and gallic acid were dissolved in an aqueous solution of 10% methanol, and a blank solvent was subjected to the assay with the use of an aqueous methanol solution at the same concentration.
<Calculation Formula> Lipase inhibitory activity(%)=(1−(A−B)/(C−D))×100 A: fluorescence intensity in the blind test using a sample solution B: fluorescence intensity in the test of the present invention using a sample solution C: fluorescence intensity in the blind test using a blank solution (a dilute solvent) D: fluorescence intensity in the test of the present invention using a blank solution (a dilute solvent)
Enzyme inhibitory activities of the sample solutions were assayed at a plurality of concentrations, the data were logarithmically plotted, and the concentration at which 50% of lipase activity was inhibited (IC50) was determined by the least-square method.
Using the powders prepared by fractionation via ultrafiltration and lyophilization in Example 3, the relationship between the molecular weight and the bacterial lipase inhibitory activity was examined. The lipase inhibitory activity test was carried out in the manner described in Example 9.

[2] = Assay of antioxidation activity via DPPH radical elimination; settings: 30° C., 30 minutes, absorbance 517 nm
Protocol: A solution of a stable radical, diphenyl-p-picrylhydradil (DPPH), in ethanol was used to evaluate the antioxidation activity. Ethanol (1,200 μl) and 400 μl of specimens (adjusted at an arbitrary concentration) were mixed with 1,600 μl of 250 mM acetate buffer (pH 5.5), and the mixture was preincubated at 30° C. for 5 minutes. A 500 μM DPPH/ethanol solution (800 μl) was added thereto, the resulting mixture was allowed to stand at 30° C. for 30 minutes, and the absorbance at 517 nm was assayed. When the control sample dissolved in ethanol was used as a specimen, 800 μl of ethanol, 400 μl of a solution of specimens in ethanol, and 400 μl of purified water were mixed, and the resulting mixture was preincubated at 30° C. for 5 minutes. A 500 μM DPPH/ethanol solution (800 μl) was added thereto, the resulting mixture was allowed to stand at 30° C. for 30 minutes, and the absorbance at 517 nm was assayed. A solution prepared in the same manner except for the use of purified water was used as a control sample. Based on the absorbance assayed, the percentage of radical elimination was determined by the following formula. Radical elimination(%)=(1−[absorbance of sample]/[absorbance of control])×100
The concentration of the sample in the sample solution was gradually changed to determine the percentage of radical elimination, the concentration of the sample solution at which the percentage of DPPH radical elimination became 50% was determined, and the determined value was designated as the 50% elimination concentration of DPPH radicals. As the value is reduced, the capacity for radical elimination is enhanced.

lipase [3] = target: T1, lipase (Sus scrofa, UniProt P00591); settings: Non-Patent Document 2; read-out: Lipase inhibitory activity (IC50) (converted); cited from earlier work
T1 sequence (P00591 1-450): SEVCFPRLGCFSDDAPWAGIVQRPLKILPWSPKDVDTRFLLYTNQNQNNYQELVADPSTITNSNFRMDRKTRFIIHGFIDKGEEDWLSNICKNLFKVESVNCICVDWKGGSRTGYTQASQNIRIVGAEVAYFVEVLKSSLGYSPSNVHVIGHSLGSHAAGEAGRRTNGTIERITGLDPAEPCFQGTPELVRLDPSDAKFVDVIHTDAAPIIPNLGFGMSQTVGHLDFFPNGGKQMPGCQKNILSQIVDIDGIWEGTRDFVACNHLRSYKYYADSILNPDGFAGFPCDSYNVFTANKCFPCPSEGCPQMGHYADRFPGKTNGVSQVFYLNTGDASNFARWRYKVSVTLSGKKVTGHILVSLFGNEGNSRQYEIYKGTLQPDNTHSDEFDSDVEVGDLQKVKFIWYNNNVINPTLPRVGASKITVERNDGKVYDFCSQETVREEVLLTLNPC

[4] = target: T2, lipase from porcine pancreas Type II (Sus scrofa, UniProt P00591); assay: Lipase inhibitory activity assay (4-methylumbelliferyl oleate fluorescence); assay type: biochemical; settings: final specimen concentration; porcine pancreatic lipase
T2 construct: lipase from porcine pancreas Type II, SIGMA; purchased SIGMA; host or cells: porcine pancreas
Protocol: Assay was carried out in accordance with Non-Patent Document 2 (J. Agric. Food Chem., 2007, 55, 4604-4609). A specimen solution was added to a 96-well fluorescence plate at 25 μl/well. A lipase solution (lipase from porcine pancreas Type II, SIGMA) prepared with the use of PBS(−) was added to the plate of the test group at 25 μl/well and PBS(−) was added to the plate of the blind test group at 25 μl/well. A 0.1 mM fluorescent substrate solution (4-methylumbelliferyl oleate, Fluka) prepared with the use of PBS(−) was added thereto at 50 μl/well, and the reaction was then allowed to proceed for 20 minutes. A 0.1 M sodium citrate solution (pH 4.2) was added as a reaction terminator at 100 μl/well, and fluorescence intensity was assayed using a fluorescence plate reader (Ex 365 nm, Em 450 nm). In a blank test, samples of the test group and of the blind test group were prepared and fluorescence intensity was assayed in the same manner as described above, except that the same amount of a solvent used for the preparation of a specimen solution was used instead of “specimen solution.” The percentage of lipase inhibition was determined by the following formula. […]

lipase [5] = target: T1, lipase; settings: cited from earlier work; for IC50: read-out: Lipase inhibitory activity (IC50)

Molecule | Activity of bacterial lipase inhibition (IC50) [1] [µg/mL] | 50% Elimination concentration of DPPH radicals [2] [µg/mL] | also measured
O=C(O)C=Cc1ccc(O)c(O)c1 [3,4-Dihydroxycinnamic acid] | 42.3 | 2.8 | 
O=C(/C=C/c1ccc(O)c(O)c1)O[C@@H]1C[C@](O)(C(=O)O)C[C@@H](O)[C@H]1O [Chlorogenic acid, chlorogenic acid] | 69.2 |  | IC50 (lipase [3]): 169 µM; IC50 [4]: 219 µM
O.O=C(O)c1cc(O)c(O)c(O)c1 [Gallic acid monohydrate] | 574.2 | 1.2 | 
O=C1O[C@H]([C@@H](O)CO)C(O)=C1O [L(+)-ascorbic acid] |  | 3.9 | 
CN(C)[C@@H]1C(O)=C(C(N)=O)C(=O)[C@@]2(O)C(O)=C3C(=O)c4c(O)cccc4[C@@](C)(O)[C@H]3C[C@@H]12 [Tetracycline hydrochloride] | 134.6 |  | 
(−)-epigallocatechin 3-O-gallate [Epigallocatechin gallate] | 918.8 | 2.0 | Lipase inhibitory activity (IC50) [4]: 20.0 µg/mL; IC50 (lipase [5]; Patent Document 4): 0.284 µM; Lipase inhibitory activity (IC50) (lipase [5]; Patent Document 5, value in brackets): 0.16 µg/mL; IC50 (lipase [5]; Patent Document 5): 0.349 µM
